Here are results for 40 compounds from patent publication US20210038559A1, “CANNABINOIDS AND DERIVATIVES FOR PROMOTING IMMUNOGENICITY OF TUMOR AND INFECTED CELLS” (priority 2018, published 2021).

Structures can show the parent of a compound that is named as a salt.

The test system of one experiment is MHC-I expression by COLO 205 cells. Put plainly: cells. Type of experiment: cell-based, human.
Conditions: not given
How it is done: A panel of synthetic cannabinoids (Cayman Chemical, #9002891) was tested for MHC class I-inducing capability in COLO 205 cells as described above. COLO 205 cells were treated with the compounds at a concentration of 35 μM and evaluated for cell surface MHC class I expression after 48 hours. Cells were harvested, stained with MHC-I mAb W6/32 (Thermo Fisher). MHC-I expression was determined by flow cytometry.
In the case of `CCCCCn1cc(C(=O)Cc2cccc(OC)c2)c2ccccc21` [Example 28, 2-(3-methoxyphenyl)-1-(1-pentyl-1H-indol-3-y1)-ethanone], the “Induction Fold” value was determined as 3.42 Fold. As for “[5-(2-chlorophenyl)-1-pentyl-1H-pyrrol-3-yl]-1-naphthalenyl-methanone [Example 63]”, the “Induction Fold” value is recorded as 2.77 Fold.

For the compound `CCCCCn1cc(C(=O)NC23CC4CC(CC(C4)C2)C3)c2ccccc21` [Example 108, 1-pentyl-N-tricyclo[3.3.1.1]dec-1-yl-1H-indole-3-carboxamide], the “Induction Fold” value is 2.38 Fold.

Staying with this experiment, now noted: Homo sapiens, COLO 205, 48 h, MHC-I expression, COLO 205 cells, compounds at 35 μM, 48 hours, flow cytometry (W6/32); read-out: Induction Fold.
`O=C(NC12CC3CC(CC(C3)C1)C2)c1nn(CC2CCOCC2)c2ccccc12` (single isomer, unassigned) [Example 361, 1-[(tetrahydro-2H-pyran-4-yl)methyl]-N-tricyclo[3.3.1.1^3,7]dec-1-yl-1H-indazole-3-carboxamide]: the fold induction at 35 µM stood at 0.95. Regarding `CCCCCn1cc(C(=O)c2cccc3c(Cl)cccc23)c2ccccc21` [Example 238, (5-chloronaphthalen-1-yl)(1-pentyl-1H-indol-3-yl)methanone], the fold induction at 35 µM was determined as 1.7.

Turning to `CC1(C)C(C(=O)c2cn(CCCCCBr)c3ccccc23)C1(C)C` [Example 222, [1-(5-bromopentyl)-1H-indol-3-yl](2,2,3,3-tetramethylcyclopropyl)-methanone], the fold induction at 35 µM amounted to 1.76. Regarding `CCCCCn1c(C)c(C(=O)c2ccc(C)c3ccccc23)c2ccccc21` [Example 326, (4-methyl-1-naphthalenyl)(2-methyl-1-pentyl-1H-indol-3-yl)-methanone], the fold induction at 35 µM came to 1.25. Regarding `COC(=O)[C@@H](NC(=O)c1ccc2c(c1)c1ccccc1n2CC1CCCCC1)C(C)(C)C` [Example 239, methyl (S)-2-(9-(cyclohexylmethyl)-9H-carbazole-3-carboxamido)-3,3-dimethylbutanoate], the fold induction at 35 µM came out at 1.69. For `C=CCCCn1cc(C(=O)C2C(C)(C)C2(C)C)c2ccccc21` [Example 148, (1-(pent-4-en-1-yl)-1H-indol-3-yl)(2,2,3,3-tetramethylcyclopropyl)methanone], the fold induction at 35 µM worked out at 2.14. On the same count and under the same terms, then `O=C(Oc1cccc2ncccc12)c1cn(CCCCCF)c2ccccc12` [Example 158, quinolin-5-yl 1-(5-fluoropentyl)-1H-indole-3-carboxylate], with 2.07; and `O=C(Oc1ccc2ncccc2c1)c1cn(CC2CCCCC2)c2ccccc12` [Example 314, quinolin-6-yl 1-(cyclohexylmethyl)-1H-indole-3-carboxylate], with 1.32. `CCCCCCC(C)(C)c1cc(O)c2c(c1)OC(C)(C)[C@H]1CC=C(CO)C[C@H]21` [Example 360, 3-(1,1-dimethylheptyl)-6aS,7,10,10aS-tetrahydro-1-hydroxy-6,6-dimethyl-6H-dibenzo[b,d]pyran-9-methanol]: the fold induction at 35 µM stood at 0.96. The same measure, in the same setting: then `CCC(C)(NC(=O)c1nn(Cc2ccc(F)cc2)c2ccccc12)C(N)=O` (single isomer, unassigned) [Example 287, N-(1-amino-2-methyl-1-oxobutan-2-yl)-1-(4-fluorobenzyl)-1H-indazole-3-carboxamide], with 1.45; and `CCCCn1cc(C(=O)c2ccc(OC)cc2)c2ccccc21` [Example 282, (4-methoxyphenyl)(1-butyl-1H-indol-3-yl)-methanone], with 1.47. Turning to `COc1ccc(N2CCNCC2)cc1` [Example 347, 1-(4-Methoxyphenyl) piperazine (hydrochloride)], the fold induction at 35 µM stood at 1.12.

`COc1cccc(CC(=O)c2cn(CCC3CCCCC3)c3ccccc23)c1` [Example 42, 1-(1-(2-cyclohexylethyl)-1H-indol-3-yl)-2-(3-methoxyphenyl)ethanone]: the fold induction at 35 µM was found to be 3.07. Take `CC(F)CCCn1cc(C(=O)c2cccc3ccccc23)c2ccccc21` (stereo not shown) [Example 316, (1-(4-fluoropentyl)-1H-indol-3-yl)(naphthalen-1-yl)methanone]: the fold induction at 35 µM worked out at 1.32. In the case of `CC(C)CCn1cc(C(=O)c2ccc3ccccc3c2)c2ccccc21` [Example 251, (1-isopentyl-1H-indol-3-yl)(naphthalen-2-yl)methanone], the fold induction at 35 µM came to 1.62.

Consider `CCC(F)CCn1cc(C(=O)Oc2cccc3cccnc23)c2ccccc21` (stereo not shown) [Example 45, quinolin-8-yl 1-(3-fluoropentyl)-1H-indole-3-carboxylate], for which the fold induction at 35 µM stood at 3.02. Still for that read-out and setting: the value for `CCC(C)n1cc(C(=O)c2ccc3ccccc3c2)c2ccccc21` (stereo not shown) [Example 350, (1-(sec-butyl)-1H-indol-3-yl)(naphthalen-2-yl)-methanone] was 1.08; that for `CC(F)CCCn1cc(C(=O)C2C(C)(C)C2(C)C)c2ccccc21` (stereo not shown) [Example 235, (1-(4-fluoropentyl)-1H-indol-3-yl)(2,2,3,3-tetramethylcyclopropyl)methanone] was 1.7. Consider `COc1ccccc1CC(=O)c1cn(CCC2CCCCC2)c2ccccc12` [Example 74, 1-(1-(2-cyclohexylethyl)-1H-indol-3-yl)-2-(2-methoxyphenyl)ethanone], for which the fold induction at 35 µM came to 2.65. For `CC(F)CCCn1nc(C(=O)NC(C(N)=O)C(C)C)c2ccccc21` (stereo not shown) [Example 293, N-(1-amino-3-methyl-1-oxobutan-2-yl)-1-(4-fluoropentyl)-1H-indazole-3-carboxamide], the fold induction at 35 µM stood at 1.43.

As for `O=C(c1ccc(F)c2ccccc12)c1cn(CCCCCF)c2ccccc12` [Example 112, (4-fluoro-1-naphthalenyl)[1-(5-fluoropentyl)-1H-indol-3-yl]-methanone], the fold induction at 35 µM turned out to be 2.37. As for `CCCCC(F)Cn1cc(C(=O)c2cccc3ccccc23)c2ccccc21` (stereo not shown) [Example 207, (1-(2-fluorohexyl)-1H-indol-3-yl)(naphthalen-1-yl)methanone], the fold induction at 35 µM is 1.85.

For the compound `O=C(c1cccc2ccccc12)c1nn(CCCCCBr)c2ccccc12` [Example 97, (1-(5-bromopentyl)-1H-indazol-3-yl)(naphthalen-1-yl)methanone], the fold induction at 35 µM stood at 2.44. In the case of `CCCCCn1cc(-c2nc(CN(CCOC)C(C)C)cs2)c2ccccc21` [Example 369, N-(2-methoxyethyl)-N-(1-methylethyl)-2-(1-pentyl-1H-indol-3-yl)-4-thiazolemethanamine, monohydrochloride], the fold induction at 35 µM is 0.85.

Turning to `CCCCCn1nc(C(=O)N[C@H](C(N)=O)[C@@H](C)CC)c2ccccc21` (single isomer, unassigned) [Example 26], the fold induction at 35 µM was 3.49. The same measure, in the same setting: then `CCC(F)CCn1cc(C(=O)c2cccc3ccccc23)c2ccccc21` (stereo not shown) [Example 128, (1-(3-fluoropentyl)-1H-indol-3-yl)(naphthalen-1-yl)methanone], with 2.28; and `CC(C)[C@H](NC(=O)c1cn(Cc2ccc(F)cc2)c2ccccc12)C(N)=O` [Example 237, N-[(1S)-1-(aminocarbonyl)-2-methylpropyl]-1-[(4-fluorophenyl)methyl]-1H-indole-3-carboxamide], with 1.7. Regarding `CCCCCCC(C)(C)c1cc(O)c2c(c1)OC(C)(C)[C@@H]1CC=C(CO)C[C@@H]21` [Example 378, 3-(1,1′-dimethylheptyl)-6aR,7,10,10aR-tetrahydro-1-hydroxy-6,6-dimethyl-6H-dibenzo[b,d]pyran-9-methanol], the fold induction at 35 µM was found to be 0.21.

Take `CCC(F)CCn1cc(C(=O)C2C(C)(C)C2(C)C)c2ccccc21` (stereo not shown) [Example 133, [1-(3-fluoropentyl)-1H-indol-3-yl] (2,2,3,3-tetramethylcyclopropyl)-methanone]: the fold induction at 35 µM is 2.23. On the same count and under the same terms, then `CCN(CC)CCN1C(=O)CN=C(c2ccccc2F)c2cc(Cl)ccc21` [Example 250, 7-chloro-1-[2-(diethylamino)ethyl]-5-(2-fluorophenyl)-1,3-dihydro-2H-1,4-benzodiazepin-2-one], with 1.63; and `CCC(Cl)CCn1cc(C(=O)C2C(C)(C)C2(C)C)c2ccccc21` (stereo not shown) [Example 37], with 3.3; and `CCC(C)n1cc(C(=O)c2cccc3ccccc23)c2ccccc21` (stereo not shown) [Example 127, (1-(sec-butyl)-1H-indol-3-yl)(naphthalen-1-yl)methanone], with 2.29.

The experiment is the same for the next values; noted with them: Homo sapiens, COLO 205, 48 h, read-out: Induction Fold.
Consider `CCCCCCC(C)(C)c1cc(OC)c(C2C=C(CO)C3CC2C3(C)C)c(OC)c1` (stereo not shown) [Example 304, 4-[4-(1,1-dimethylheptyl)-2,6-dimethoxyphenyl]-6,6-dimethyl-bicyclo[3.1.1]hept-2-ene-2-methanol], for which the fold induction at 35 µM was 1.39.

Staying with this experiment, now noted: MHC-I expression, COLO 205 cells, compounds at 35 μM, 48 hours, flow cytometry (W6/32).
Take `COC(=O)[C@@H](NC(=O)c1cn(Cc2ccc(F)cc2)c2ccccc12)C(C)C` [Example 270, N-[[1-[(4-fluorophenyl)methyl]-1H-indol-3-yl]carbonyl]-1-valine, methyl ester]: the “Induction Fold” value was 1.54 Fold. For the compound `CCOC(=O)[C@@H](NC(=O)c1nn(Cc2ccc(F)cc2)c2ccccc12)C(C)C` [Example 8, ethyl (1-(4-fluorobenzyl)-1H-indazole-3-carbonyl)-1-valinate], the “Induction Fold” value is on record as 5.50 Fold. Still for that read-out and setting: the value for `CC[C@H](C)[C@H](NC(=O)c1c2ccccc2nn1CCCCCF)C(N)=O` [Example 355, N-(1-amino-3S-methyl-1-oxopentan-2S-yl)-2-(5-fluoropentyl)-2H-indazole-3-carboxamide] was 1.05 Fold; that for `O=C(Oc1cccc2cccnc12)c1nn(CCCCCF)c2ccccc12` [Example 311, 1-(5-fluoropentyl)-8-quinolinyl ester-1H-indazole-3-carboxylic acid] was 1.36 Fold.
